What was measured:
DBA2 mice [1] = assay: black/white exploration test (animal model of anxiety); assay type: in vivo; settings: for active dose range: anxiolytic properties in mice
Source text: The black/white exploration test [Crawley et al. Pharmacology, Biochemistry and Behav. 13, 167 (1980)] is a simple animal model of anxiety. Rodents placed in a two compartment box which consists of a brightly lit, white painted side and a dimly lit, black painted side, display a marked preference for the black side of the apparatus. This behavior is caused by the aversive properties of the brightly lit, white painted section. Classical anxiolytic drugs [such as diazepam, see Crawley, supra] and novel anxiolytic drugs [such as 5HT3 antagonists, see Jones et al. Br. J. Pharm.
A. Naive male DBA2 mice (25-30) were housed on a reversed light/dark cycle and tested during the dark phase of the cycle under dim red light. The apparatus consisted of an open topped box (40 cm long×27 cm wide×27 cm high) divided into a small area (2/5) and a large area (3/5) by a partition that extended 20 cm above the walls. There was a 7.5×7.5 cm opening in the partition at floor level. The small compartment was painted black and the large compartment white. The floor of each compartment was marked into 9 cm squares. The white compartment was illuminated by a 100 W tungsten bulb 17 cm above the box and the black compartment by a similarly placed 60 W red bulb.
Animals that had been injected with drug or vehicle were placed individually into the center of the white area and their behavior observed during a 5 minute period by remote video recording. Four behavioral parameters were recorded every minute: the number of exploratory rears in the white and black sections, the number of line crossings in the black and white sections, the number of transitions between the two sections and the time spent in the black and white sections. Animals were tested in treatment groups of 8-10 and vehicle controls were run on each test day. Data were analysed by ANOVA and Dunnetts test.

rats = assay: direct observation of motoric behaviors in a novel environment (perspex cage); assay type: in vivo, rat; settings: 0.1 mg/kg, 15 minute period 15 minutes after treatment
Protocol: In order to assess further the effect of Compound A on exploration in a novel environment, the motoric hehaviors of rats placed in a perspex cage was recorded by direct observation for a 15 minute period 15 minutes after treatment with Compound A.
Experimenters (unaware of the treatments the animals had received) recorded the frequency and duration of rearing, sniffing, grooming and cage crossing using a keypad interfaced to a BBC microcomputer.

Sprague Dawley rats [2] = assay: exploratory/locomotor activity in automated activity cages; assay type: in vivo, rat
Protocol: B. The effects of CCK-8 and compound A on the exploratory behavior of the rat were examined in automated activity cages and by direct observation. […] [See Crawley, Pharm. Biochem & Behav. 20, 23-27 (1984).]
Male Sprague Dawley rats were injected ([…].) with CCK-8 and immediately placed in automated activity cages. Activity was measured for 30 minutes past injection.
Male SD rats were injected (s.c.) with the CCK antagonist compound A (0.0001-10 mg/kg) and immediately placed in the automated activity cages.

Sprague Dawley rats [3] = settings: cited from earlier work
DBA2 mice [4] = settings: rodents, literature (Crawley); cited from earlier work
humans = settings: reported studies; cited from earlier work

## CN1C(=O)[C@@H](NC(=O)c2cc3ccccc3[nH]2)N=C(c2ccccc2)c2ccccc21 [Compound A, 3(S)-(-)-1,3-dihydro-3-(2-indolecarbonylamino)-1-methyl-5-phenyl-2H-1,4-benzodiazepin-2-one]
DBA2 mice [1]; 0.5, 5.0 and 500 ug/kg, male DBA2 mice
  preference for locomotion (line crossings) in the black side: abolished
DBA2 mice [1]; 5.0 and 500 ug/kg, male DBA2 mice
  difference in time spent in the black and white side: abolished
DBA2 mice [1]
  active dose range: 0.05 to 5.0 µg/kg
DBA2 mice [1]; doses of 0.05, 0.5, 5.0 and 500 ug/kg, male DBA2 mice
  preference for rearing in the black side: significantly decreased
rats
  cage crossing: significantly increased
  rearing: significantly increased
  sniffing: significantly increased
Sprague Dawley rats [2]; 0.0001-10 mg/kg s.c.
  habituation and period of exploratory activity: delayed habituation and prolonged the period of exploratory activity
Sprague Dawley rats [2]; 0.1 mg/kg s.c., 25 minutes
  levels of activity at 25 minutes: significantly above controls
Sprague Dawley rats [2]; higher and lower doses than 0.1 mg/kg s.c. (bell-shaped dose response)
  effect on activity at 25 minutes: no significant effect

## Cc1cccc(NC(=O)N[C@@H]2N=C(c3ccccc3)c3ccccc3N(C)C2=O)c1 [Compound B, (R)-N-(2,3-dihydro-1-methyl-2-oxo-5-phenyl-1H-1,4-benzodiazepin-3-yl)-N'-(3-methylphenyl)urea]
DBA2 mice [1]
  active dose range: 0.005 to 0.05 µg/kg
DBA2 mice [1]; dose of 0.005 ug/kg, male DBA2 mice
  difference in time spent in the black and white side: decreased
DBA2 mice [1]; dose of 0.05 ug/kg, male DBA2 mice
  preference for rearing in the black side: abolished

## CNC1=Nc2ccc(Cl)cc2C(c2ccccc2)=[N+]([O-])C1 [chlordiazepoxide]
Sprague Dawley rats [3]; literature (McElroy et al.)
  spontaneous locomotor activity in a novel environment: increases spontaneous locomotor activity

## CN1C(=O)CN=C(c2ccccc2)c2cc(Cl)ccc21 [diazepam]
DBA2 mice [4]
  preference of the animal for the black dimly lit side: decrease the preference

## CCK-4
humans
  induction of panic: induce panic

## CCK-8: carboxylterminal octapeptide of CCK-33, a naturally-occurring neuropeptide and the minimum fully active sequence
humans
  induction of panic: induced gastrointestinal effects but not panic symptoms
Sprague Dawley rats [3]; exogenous CCK-8, literature (Crawley)
  exploratory behavior in a novel environment: decreases exploratory behavior
Sprague Dawley rats [2]; 0.5-16 μg/kg i.p., 30 minutes past injection, novel environment
  locomotor activity: dose-dependently decreased

— patent US5206238A, “Cholecystokinin antagonists” (Merck & Co., Inc., priority 1992, dated 1993)
